# Measured values as given in PubChem BioAssay AID179 (DTP/NCI, 2004).
# Several values for one entry are separate records, joined by “and”; a condition that tells them apart may be missing. Equal values may be shown once. Activity calls are given as the source filed them.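 The calls were made as follows: active = compounds giving half or more protection of infected cells from virus-caused growth loss, again on retest; inactive = the rest.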
# Tested on: CEM cells HIV-1 protection, formazan growth assay
# Assay: NCI AIDS Antiviral Assay
# Conditions: for IC50: measured here: growth of uninfected CEM cells
# Outline: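 Human CEM cells, uninfected and HIV-1-infected, received five drug concentrations, and growth was read by soluble formazan assay. Compounds giving at least 50% protection were retested; reproducible 100% protection defined confirmed active.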
Structure (SMILES),outcome,EC50 [µM],IC50
CC1Cn2c(Cc3ccccc3)nnc2S1 (stereo unspecified),inactive,,
O=C1NC(=O)C2C(=O)NC(=O)C1C2Cc1ccco1 (stereo unspecified),,> 955,> 955 µM
Nc1ccc(C(=Nc2ccccc2)c2ccc(N)cc2)cc1,inactive,,
O=c1c2ccccc2[nH]c2c(Cl)cc(Cl)c(NC3CCCCC3)c12,,> 200,28.2 µM
COc1cc(O)c(C(=O)/C=C/c2ccccc2)c(O)c1C1C=C(C)CCC1C(C)C (stereo unspecified),inactive,,
C1CCN2CC3CC(CN4CCCCC34)C2C1 (stereo unspecified),,> 759,> 759 µM
CC1OC(n2cc(F)c(=O)[nH]c2=O)C=CC1O (stereo unspecified),,> 1020,407 µM
N#CC(c1ccccc1)N(CCOCCOCCN(C(=O)c1cccc2ccccc12)C(C#N)c1ccccc1)C(=O)c1cccc2ccccc12 (stereo unspecified),,> 200,13.2 µM
CCCCCCCCCC(O)CC(=O)c1c(O)cccc1O (stereo unspecified),,> 200,32.4 µM
Clc1ccc(/C=N/N=C(N/N=C/c2ccc(Cl)cc2Cl)N/N=C/c2ccc(Cl)cc2Cl)c(Cl)c1,,> 100,> 100 µM
COc1ccc(/C=N/Nc2nc3ccccc3c(=O)n2-c2ccccc2)c(OCc2ccccc2)c1,,> 200,
C[S+](C)c1ccccc1NC(C)(C)C,,> 776,490 µM
CCOC(=O)NN(C(=O)OCC)c1c(C)cc(C)cc1C,,> 200,> 200 µM
CN1c2ccccc2N(C)C23N(C)c4ccccc4N(C)C12N(C)c1ccccc1N3C (stereo unspecified),,> 43.7,> 43.7 µM
COC1=CC(=O)C2C(C1=O)C(c1ccc(OC)c(OC)c1)[C@H]2C (stereo partly specified),,> 12,> 12 µM
CCSc1nnc(-c2ccccc2)nc1Cc1ccc(OC)cc1,,> 14.8,> 14.8 µM
O=C(O)C12C3CCC(C3)C1(C(=O)O)C1CCC2C1 (stereo unspecified),,> 1000,> 1000 µM
c1ccc(-c2cn3nc4ccccc4c3nn2)cc1,,> 200,> 200 µM
CCC(C)C(C1=C(O)c2ccccc2C(=O)C1=O)C1=C(O)c2ccccc2C(=O)C1=O (stereo unspecified),,> 200,87.1 µM
Cc1ccc(C2=C(c3ccccc3)C(O)(c3ccccc3)C(c3ccccc3)=C2c2ccc(C)cc2)cc1,,> 7.76,> 7.76 µM
COc1c(C(=O)/C(=N/Nc2cccc(Cl)c2)C(C)=O)c(O)c(OC)c2occc12,,> 200,85.1 µM
O=C1c2ccccc2C(=O)c2c1ccc1c3ccccc3n(Cc3ccccc3)c21,inactive,,
O=C1OCN(c2ccccc2)C12CCN(Cc1ccccc1)CC2,,> 200,28.8 µM

Structure (SMILES),outcome,EC50 [µM],IC50
Clc1ccc(C2=CCN3CC=C(c4ccc(Cl)cc4)C23)cc1,,> 200,10.7 µM
O=C(/C=C/c1ccccc1)CC(=O)/C=C/c1ccccc1,,> 200,30.9 µM
CC1(C)CCC2=C(O1)c1ccccc1C(=O)C2=O,,> 200,0.912 µM and 1.07 µM
O=C1c2cccnc2S(=O)(=O)N1c1ccc(Oc2ccccc2)cc1,,> 200,> 200 µM
CCOC(=O)C1=c2[nH]c3cccc4cccc(c43)n2C(=O)CC1c1ccccc1 (stereo unspecified),,> 100,75.9 µM
NNc1n[nH]c(=S)n1N,,> 200,> 200 µM
COc1ccc(C2CC(c3c(O)ccc4ccccc34)=NN2)cc1OC (stereo unspecified),,> 200,5.5 µM
COc1ccccc1NC(=O)/C(C=NC(=S)c1ccncc1)=C(\C)O,inactive,,
COC(=O)C1(C(=O)OC)CC2c3c(c4ccccc4n3C)CC(C1=O)N2Cc1ccccc1 (stereo unspecified),inactive,,
O=C(Nc1cc2c(oc1=O)CCCCC2)c1cnccn1,,> 100,> 100 µM
O=S(=O)(O)C(O)CC=C(C(O)S(=O)(=O)O)C(O)S(=O)(=O)O (stereo unspecified),,> 200,81.3 µM
CC1=N/C(=C\c2ccc([N+](=O)[O-])cc2)C(=O)O1,,> 155,> 155 µM
Oc1ccc2c(c1)OCC(O)(c1ccccc1O)C2 (stereo unspecified),inactive,,
CCC12CCC3CCCCC3(OO1)[C@@H](OC)O2 (stereo partly specified),,> 51.3,> 51.3 µM
C=CCC(C(=O)OC)C1(C(=O)OC)c2[nH]c3ccccc3c2CCN1Cc1ccccc1 (stereo unspecified),,> 39.8,> 39.8 µM
CC(NC(=O)c1ccccc1SC(=O)CCCCC[n+]1ccccc1)C(N)=O (stereo unspecified),,2.75,30.2 µM
CCOP(=O)(OCC)/C(C#N)=C/c1cccn1C(C)C,,151,> 200 µM
C/C(=N\OCC(O)CNC(C)C)c1ccc2c(c1)NC(=O)CS2 (stereo unspecified),inactive,,
CC1OC(=O)C(O)=C1O (stereo unspecified),inactive,,
CC(C)=CCC1=C(O)C(=O)C(CC=C(C)C)=C(O)C1=O,,> 83.2,43.7 µM
CC(C)(C)C1CCC(CC(=O)O)(CC(=O)Nc2nccs2)CC1 (stereo unspecified),,> 200,89.1 µM
C=CCOC(OCC=C)/C(Br)=C/C,inactive,,
O=C(C[n+]1ccncc1)c1ccc2c(c1)CCCC2,,0.0631,> 200 µM

Structure (SMILES),outcome,EC50 [µM],IC50
O=S1(=O)c2ccccc2C(O)(c2ccccc2)c2ccccc21,,> 200,123 µM
CCN(CC)CCCC(C)Nc1ccnc2cc(F)ccc12 (stereo unspecified) (tested in a mixture with another compound),,> 200,> 200 µM
CCCNC(=O)c1nc(SC)sc1NC(=O)c1ccc(OC)cc1,,> 200,> 200 µM
C=C1N2[C@@H](CO)[C@H](c3ccccc3)O[C@]2(C)CC[C@]1(C)Cc1ccccc1,,> 200,83.2 µM
Nc1nc(N)c2cnnn2n1,,> 295,> 295 µM
O=C(/C=C/c1ccc[nH]1)c1ccccc1,,> 347,120 µM
COc1ccccc1NC(=O)CC(=O)n1nc(-c2ccccc2)c(N=Nc2ccccc2[N+](=O)[O-])c1-c1ccccc1,,> 33.9,> 33.9 µM
CCCc1c(C(=O)OCC)[nH]c(-c2ccc(-c3[nH]c(C(=O)OCC)c(CCC)c3C(=O)OCC)o2)c1C(=O)OCC,,> 4.79,> 4.79 µM
CC(=O)c1sc(Nc2nnc(-c3ccc(-c4nnc(Nc5nc(C)c(C(C)=O)s5)o4)cc3)o2)nc1C,inactive,,
N#C/C(C(=O)Nc1ccc(Cl)cc1)=C(/N)N1CCCC1,,> 200,> 200 µM
Cc1cc(/C(C#N)=C/c2ccc(N(C)C)cc2)cc(C)c1[N+](=O)[O-],,> 2,0.105 µM
Cn1c(=N)n(CC(=O)NC23CC4CC(CC(C4)C2)C3)c2ccccc21,,> 347,66.1 µM
C[C@@H](NC(=O)c1ccccc1SC(=O)OCCBr)C(N)=O,,4.57,> 200 µM
NC(N)=N/N=C/c1c(-c2ccc(Cl)c(Cl)c2Cl)nc2sccn12,,0.191,1.07 µM
CCOc1ccc(C2=C(Cl)c3cc(OC)c(OC)cc3C2Cl)cc1 (stereo unspecified),inactive,,
O=c1c2ccccc2oc2cc3c(c(O)c12)CCCC3,,> 200,> 200 µM
O=[N+]([O-])C1CC/C(=N/O)c2nonc21 (stereo unspecified),,> 200,123 µM
Cn1cc(-c2ccc(CCOC3CCCCO3)cc2)c2c(C#N)cccc21 (stereo unspecified),,> 200,38.9 µM
O=C(/C=C/c1ccccc1)CCN1CCCCC1,,> 200,10.2 µM
COc1ccc(/C=C/C(=O)Oc2ccc(/C=C3\CCCCC3=O)cc2)cc1,,> 200,1.05 µM
CCOC(=O)C(O)(NC(=O)c1ccccc1F)C(F)(F)F (stereo unspecified),inactive,,
Cc1cc(C2(c3cc(C)c(O)c4ncccc34)OC(=O)c3ccccc32)c2cccnc2c1O,,> 2,0.102 µM
Cc1cc(N(CCC#N)CCC#N)ccc1/C=C(\NC(=O)/C=C/c1ccccc1)C(N)=O,inactive,,

Structure (SMILES),outcome,EC50 [µM],IC50
C=CC[C@@]12CCC(=O)C=C1CCCC2=O,inactive,,
CN(/N=C/c1ccccc1C(=O)O)C1=NCCCCN1,,> 200,> 200 µM
CCc1c(Cc2ccccc2)n(COCCO)c(=O)[nH]c1=O,,9.55,> 200 µM
CC(C(=O)OCc1ccccc1)N(Cc1ccccc1)Cc1ccccc1 (stereo unspecified),,> 200,> 200 µM
N#C/C(=C(\c1ccccc1)c1ccccn1)c1ccccc1,,> 20,1.1 µM
O=[N+]([O-])C1(C2([N+](=O)[O-])CCCC2)CCCC1,,44.7,110 µM
COC(=O)CCCN(C)c1n[nH]c(N)n1,,> 200,> 200 µM
CC(O)c1ccc2c(c1)C(O)C[C@H]1[C@](C)(CO)CCC[C@]21C (stereo partly specified),,> 200,141 µM
COC1(C(C)(C)C)C=C(C(C)(C)C)P(=O)(O)O1 (stereo unspecified),,> 200,> 200 µM
O=C1CC([C@H](NC(=O)OCc2ccccc2)C(=O)O)ON1 (stereo partly specified),inactive,,
COC(=O)CCc1ccc2c(c1)CC1(C2)Cc2ccc(CCC(=O)OC)cc2C1,,> 200,57.5 µM
CC1CN(C(=O)CN2CCC(CCCCN(C)C)CC2)c2ccccc2NC1=O (stereo unspecified),,> 251,> 251 µM
c1ccc2[nH]c(-c3nc4ccccc4s3)nc2c1,,> 15.1,5.37 µM
COc1ccc2c[n+](C)c3c4cc(OC)c(OC)cc4ccc3c2c1,inactive,,
CCOC(=O)c1c(-c2ccc(OC)cc2)c(C#N)c(=S)n(C2OC(CO)C(O)C(O)C2O)c1C (stereo unspecified),,> 200,> 200 µM
COc1cc(/C=C/C(=O)OCCc2ccccc2)ccc1O,,> 8.32,5.13 µM
S=C1Nc2cnc3ccccc3c2SC1c1ccccc1 (stereo unspecified),,> 200,56.2 µM
CCN(CC)CCN=Cc1c(O)c(O)c(C(C)C)c2cc(C)c(-c3c(C)cc4c(C(C)C)c(O)c(O)c(C=NCCN(CC)CC)c4c3O)c(O)c12,,> 200,1.02 µM
O=C(O)c1ccc(CSc2ccc([N+](=O)[O-])cc2)c([N+](=O)[O-])c1,,> 204,> 100 µM
C=CCNC(=S)NC=C(C(N)=O)C(N)=O,,> 200,> 200 µM
CCCCCCN=Cc1c(O)c(O)c(C(C)C)c2cc(C)c(-c3c(C)cc4c(C(C)C)c(O)c(O)c(C=NCCCCCC)c4c3O)c(O)c12,,> 200,129 µM
NC(=O)CCCNC(=O)c1ccccc1SC(=O)CCCC[n+]1ccccc1,,0.646,16.2 µM
CC1CC(c2cccc3c2OCO3)=Nc2ccccc2S1 (stereo unspecified),,> 17.4,> 17.4 µM
